The test system of the experiment is orthotopic CRC transplanted tumors. The experiment can be described thus: orthotopic CRC transplanted tumors in mice. The experiment is classed as in vivo. The following applies: YD1701 1 mg·kg^−1, 5-FU 10 mg·kg^−1, intraperitoneal, two weeks; three groups compared; FIG. 20. On the procedure:
To further assess the therapeutic potential of the YD1701, the inhibiting effects of the YD1701 and 5-FU(5-fluorouracil) on orthotopic CRC transplanted tumors in the mice are compared, and the experimental process is shown in FIG. 17. On the 20th day after the colons of mice of YD1701 are implanted with tumor micro-tissue blocks orthotopically, and the formation of the orthotopic transplanted tumors is determined by an in-vivo imaging system. […] Then, the determined mice with the orthotopic transplanted tumors are divided into three groups and subjected to intraperitoneal injection of YD1701 (1 mg·kg^−1), normal saline+DMSO and 5-FU (10 mg·kg^−1) for treatment for two weeks. The total survival time of the three groups of mice with the orthotopic transplanted tumors is compared.

As to `O=c1[nH]cc(F)c(=O)[nH]1` [5-FU, 5-fluorouracil], the “volume sizes of the tumors in situ in the colons” value was “no obvious difference”.

These data come from patent publication US20210186925A1, “Applications Of YD1701 In Preparation Of Drugs For Treating ALDH1A3 High-Expression Tumors” (First Affiliated Hospital Third Military Medical University …, priority 2017, published 2021).
